The source of these data is patent publication EP0955032A1, “COSMETIC” (Technoble Co., Ltd., priority 1996, dated 1997).

≈ marks a conversion by molar mass, not a printed value.

Data set [1] relates to B16 mouse melanoma cells. Put plainly: Experiment 1: gross observation of cell pellets after culture with sample. It is filed as cell-based. The note with it: 5mM sample with 50mM c-AMP, three days; compared with blank culture. As to the method:
(§1) Cultured B16 mouse melanoma cells (6x10^4 cells) were inoculated to Eagle's minimum essential medium (MEM) containing 5% (v/v) of fetal bovine serum (FBS) and pre-incubated for one day under 5% CO2 at 37° C before 4 days incubation with 0.1% D-glucosamine under the same conditions. Then the culture medium was replaced with one that contained 50mM of adenosine 3',5'-cyclic phosphate (c-AMP) and 5mM of 2,5-acetoxy benzoic acid as the sample, and incubated under 5% CO2 for three days at 37° C.
(§2) For comparison, a separate series of incubation was conducted under the same conditions using the same culture medium without 2,5-diacetoxy benzoic acid, and served as a blank.
After the incubation, the cells were isolated from the medium by centrifugation and made into a pellet.

For a further data set, the system named is T1-tyrosinase. Kind of data set: Experiment 1: SDS electrophoresis of intracellular tyrosinase isozymes (T1). The data set is classed as cell-based, mouse. As to conditions: 5mM sample, three days; compared with blank culture. As to the method:
as §1, §2
(§3) Then the culture samples were analyzed by SDS electrophoresis for detection of B16 mouse melanoma intracellular tyrosinase isozymes. The conditions of the electrophoresis were: gel = polyacrylamide gel (T=7.5% w/v, C=3% w/v); buffer solution = 0.025 M tris- 0.192 M glycine buffer solution (pH = 8.3) containing 0.1% (v/v) sodium dodecyl sulfate (SDS); amount of application = 20uL per well [the mixing ratio of the buffer A (38ml of 0.125M tris-HCl buffer, 10ml of glycerin, 2g of SDS and 3mg of bromphenol blue)/culture sample = 1/1]. The concentration of the sample was adjusted to 1600ug/ml.

The test system of a further data set is T3-tyrosinase. Put plainly: Experiment 1: SDS electrophoresis of intracellular tyrosinase isozymes (T3). It is filed as cell-based, mouse. As to conditions: 5mM sample, three days; compared with blank culture. As to the method:
as §1, §2, §3

Another data set addresses T1, intracellular tyrosinase (Mus musculus, UniProt P11344).
T1 construct: endogenous in cells; host or cells: B16 mouse melanoma cells
T1 sequence (P11344 19-533): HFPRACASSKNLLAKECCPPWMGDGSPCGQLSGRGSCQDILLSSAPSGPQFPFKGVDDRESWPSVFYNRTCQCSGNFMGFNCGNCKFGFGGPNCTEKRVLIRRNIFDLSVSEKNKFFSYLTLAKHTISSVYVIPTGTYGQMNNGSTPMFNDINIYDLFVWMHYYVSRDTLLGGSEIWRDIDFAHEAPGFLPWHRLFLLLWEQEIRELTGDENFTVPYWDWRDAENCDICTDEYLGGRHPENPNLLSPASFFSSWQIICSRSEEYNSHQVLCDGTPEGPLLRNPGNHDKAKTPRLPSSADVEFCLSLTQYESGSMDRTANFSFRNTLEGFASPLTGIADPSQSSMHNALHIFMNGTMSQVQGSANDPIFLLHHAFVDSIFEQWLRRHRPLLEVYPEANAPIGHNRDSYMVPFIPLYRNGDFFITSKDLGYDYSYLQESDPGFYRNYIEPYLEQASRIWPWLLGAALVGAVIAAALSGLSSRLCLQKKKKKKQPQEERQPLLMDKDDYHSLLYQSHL
Put plainly: Experiments 2 and 5: inhibition of intracellular tyrosinase activity (Dopa value). It is filed as cell-based. As to conditions: for Dopa value: Fig. 1, 2.5mM or 5mM DABA, 2.5mM DAPECSAM, two days, compared with blank and with DHBA at the same concentration. How it is done:
(§4) Cultured B16 mouse melanoma cells were inoculated to a 96-well microplate (Corning Ltd.) at the rate of 8000 cells /well and pre-incubated in the Eagle's MEM containing 5% (v/v) FBS for one day under 5% CO2 at 37° C. After the pre-incubation, the culture medium was replaced with the Eagle's MEM containing 5% FBS, also containing 2.5mM or 5mM 2,5-diacetoxy benzoic acid or 2.5mM of 2-(2',5'-diacetoxy-benzoiloxy) benzoic acid, whereupon incubation was continued for two days under 5% CO2 at 37° C.
(§5) After the incubation, the medium was removed and a surfactant (Triton X-100) was mixed with the cells. Then 5mM of L-dopa or 0.2% of 3-(4,5-dimethylthiazol-2-yl)-2,5-diphenyltetrazorium bromide (MTT) was mixed for tyrosinase reaction at 37° C. Then the Dopa value and MTT test value were measured at the wavelength of 490nm and 570-630nm respectively using a microplate reader (Model 450, Bio Rad Ltd.).
(§6) For comparison, two series of culture with 2.5mM or 5mM of 2.5-dihydroxy benzoic acid instead of the compounds used in the present invention, as well as a culture without compound were prepared to serve as the positive controls and blank respectively.
(§7) It is believed that the higher the Dopa value, the higher the intracellular tyrosinase activity, while the lower the MTT test value, the lower the cultured B16 mouse melanoma cell activity.
(§8) The compound expressed by Formula A was used as an example of the 2,5-dihydroxy benzoic acid derivatives to evaluate its inhibitory effect on intracellular tyrosinase activity in accordance with the same protocol as followed in Experiment 2. [drawing 23]
(§9) However, the concentration was set to 2.5mM and the compound was dissolved in dimethyl sulfoxide before being applied to the culture medium.
(§10) The medium containing dimethyl sulfoxide was used for the blank culture. The results are shown in the graphs in Fig. 4 (Dopa levels) and Fig. 5 (MTT levels).

The subject of data set [2] is B16 mouse melanoma cells. Kind of data set: Experiments 2 and 5: MTT test value (cell activity). The note with it: for MTT value: Fig. 2, 2.5mM or 5mM DABA, 2.5mM DAPECSAM, two days, compared with DHBA cultures and blank. It is filed as cell-based. How it is done: as §4, §5, §6, §7, §8, §9, §10
Another data set concerns cyclooxygenase. Put plainly: Experiment 3: inhibition of cyclooxygenase activity (oxygen consumption). As to conditions: Fig. 3; 1.00ml of 5mM or 10mM solution; compared with blank (purified water). The data set is classed as biochemical. How it is done: A mixture solution was prepared using 3.57ml of 0.2M tris-HCl buffer solution containing 20mM of L-tryptophan, 0.03ml of 40mM hemoglobin solution, 0.20ml of 400unit/ml cyclooxygenase solution, and 1.00ml of 5mM or 10mM 2.5-diacetoxy benzoic acid solution.
For comparison, a mixture using 1.00ml of purified water instead of 1.00ml of 2,5-diacetoxy benzoic acid was prepared to serve as a blank.
The mixture was incubated for five minutes at 37° C, and then 0.20ml of 0.2M tris-HCl buffer solution containing 2mM of arachidonic acid was added to the mixture for cyclooxygenase reaction. Immediately after the reaction started, the amount of dissolved oxygen in the reaction solution was measured using a biological oxygen monitor (YSI Model 5300, Meridian Instruments Far East, Ltd.). On the basis of the measurement of the dissolved oxygen level, the change in oxygen consumption attendant on the progress of the reaction time was determined.
It is believed that the less the oxygen consumption, the more the cyclooxygenase was inhibited.

A short description of another data set: in vitro. The data set is classed as cell-based. As to conditions: rabbit, sirc-c cells. As to the method:
Cultured rabbit cornea cells (SIRC-C) were inoculated to a 96-well microplate (Corning Ltd.) at the rate of 5000 cells/well, and pre-incubated with Eagle's MEM containing 5% (v/v) FBS for one day under 5% CO2 at 37° C. Then 0.2ml of Eagle's MEM containing 0.05% neutral red was added to the culture medium and incubation was continued for two days under the same conditions. Furthermore, 2,5-diacetoxy benzoic acid was added to the culture medium at the concentrations of 0.025% (w/v) (10.5mM), 0.05% (w/v) (21mM), 0.1% (w/v) (42mM) or 0.2% (w/v) (84mM) and incubated again for two days under 5% CO 2 at 37° C.
For comparison, cultures with 30ug/ml, 60ug/ml or 90ug/ml of sodium dodecyl sulfate instead of 2,5-diacetoxy benzoic acid and without any compound were prepared and served as the positive control and the blank respectively.
The cultures were tested by analyzing SIRC-C neutral red intake, which is one of the alternative methods of eye-irritation test, and the midpoint cytotoxicity (NR50) value was derived from the neutral red intake rate to evaluate the potential irritation effect.
It is believed that, since the neutral red intake decreases with the increase in the irritation of the compound to SIRC-C, the higher the NR50 concentration of the sample solution, the lower the irritation to the cells.

For orientation: CC50 means the concentration at which the toxic effect on the cells reaches its halfway point. Take `CC(=O)Oc1ccc(OC(C)=O)c(C(=O)O)c1` [DABA, 2,5-diacetoxy benzoic acid]: in the data set with B16 mouse melanoma cells [1], the “gross observation of pellets” value is on record as “significantly whitened”. The “band of T1-tyrosinase” value with T1-tyrosinase is given as “significantly reduced”. For the same compound, in the data set on T3-tyrosinase, the T3-tyrosinase band result was “disappeared”. The Dopa value result on intracellular tyrosinase is “much lower than that of the blank”. Moreover, the “inhibitory effect on intracellular tyrosinase compared with kojic acid and albutin” value at intracellular tyrosinase (within a concentration range that did not inhibit cell activity) is recorded as “the same or even higher”. Moreover, the MTT value result in the data set on B16 mouse melanoma cells [2] is “not much lower”. Further, the “increase in oxygen consumption attendant upon progress of reaction time” value with cyclooxygenase is recorded as “much lower”. In “in vitro”, this compound registered a CC50 at 48 h of 1000 to 2000 µg/mL (≈ 4.2 to 8.4 mM).
Regarding `COC(=O)c1ccccc1OC(=O)c1cc(OC(C)=O)ccc1OC(C)=O` [DAPECSAM, 2-(2'5'-diacetoxy-benzoiloxy) benzoic acid methyl ester], the Dopa value entry at intracellular tyrosinase is reported as “much lower than that of the blank”. In the data set on B16 mouse melanoma cells [2], the MTT value result is “not much lower”.
As to `COC(=O)c1ccccc1OC(=O)c1cc(OC(C)=O)ccc1OC(C)=O` [Formula A], the “intracellular tyrosinase activity (Dopa levels)” value at intracellular tyrosinase (Experiment 5, Fig. 4, 2.5mM, dissolved in dimethyl sulfoxide, blank with dimethyl sulfoxide) is given as “significantly inhibited”. In the data set on B16 mouse melanoma cells [2] (Experiment 5, Fig. 5, 2.5mM, dissolved in dimethyl sulfoxide, blank with dimethyl sulfoxide), the “cell activity (MTT levels)” value is “not the cell activity”.
For the compound `CCCCCCCCCCCCOS(=O)(=O)[O-].[Na+]` [SDS, sodium dodecyl sulfate, reference compound], the CC50 at 48 h in the data set “in vitro” is around 60 µg/mL.
